Values after ≈ are worked out from the molar mass of the structure shown. Structures can show the parent of a compound that is named as a salt.
What was measured:
Type in all cases: cell-based
E. faecium L4001 [1] = experiment: MIC, liquid dilution test in minimal medium (96-well microtitre plate); details: Enterococcus faecium
Description: (§1) Determination of the Minimum Inhibitory Concentration (MIC)
(§2) The minimum inhibitory concentration (MIC) is the minimum concentration of an antibiotic with which the growth of a test microbe is inhibited over 18-24 h. The inhibitor concentration can in these cases be determined by standard microbiological methods (see, for example, The National Committee for Clinical Laboratory Standards. Methods for dilution antimicrobial susceptibility tests for bacteria that grow aerobically; approved standard-fifth edition. NCCLS document M7-A5 [ISBN 1-56238-394-9]. NCCLS, 940 West Valley Road, Suite 1400, Wayne, Pa. 19087-1898 USA, 2000). The MIC of the compounds of the invention is determined in the liquid dilution test on the 96-well microtitre plate scale. The bacterial microbes are cultivated in a minimal medium (18.5 mM Na2HPO4, 5.7 mM KH2PO4, 9.3 mM NH4Cl, 2.8 mM MgSO4, 17.1 mM NaCl, 0.033 μg/ml thiamine hydrochloride, 1.2 μg/ml nicotinic acid, 0.003 μg/ml biotin, 1% glucose, 25 μg/ml of each proteinogenic amino acid with the exception of phenylalanine; [H.-P. Kroll; unpublished]) with addition of 0.4% BH broth (test medium). In the case of Enterococcus faecium L4001, heat-inactivated fetal calf serum (FCS; GibcoBRL, Germany) is added to the test medium in a final concentration of 10%. Overnight cultures of the test microbes are diluted to an OD578 of 0.001 (to 0.01 in the case of enterococci) in fresh test medium, and incubated 1:1 with dilutions of the test substances (1:2 dilution steps) in test medium (200 μl final volume). The cultures are incubated at 37° C. for 18-24 hours; enterococci in the presence of 5% CO2.
(§3) The lowest substance concentration in each case at which bacterial growth was no longer visible is defined as the MIC. […] The compounds show a graded antibacterial effect against most of the test microbes.

S. aureus E33 [2] = experiment: as above; details: Staphylococcus aureus
Description: as §1, §2, §3

S. aureus T17 [3] = experiment: as above; details: Staphylococcus aureus, T17, read-out: MIC S. aureus T17
Description: as §1, §2, §3
The S. aureus strain T17 is isolated in vivo. CFW1 mice are infected intraperitoneally with 4×10^7 S. aureus 133 cells per mouse. 0.5 h after the infection, the animals are treated intravenously with 50 mg/kg biphenomycin B. The kidneys are removed from the surviving animals on day 3 after the infection. After homogenization of the organs, the homogenates are plated out as described for RN4220Bi^R on antibiotic-free and antibiotic-containing agar plates and incubated at 37° C. overnight. […] About 20 of these colonies are tested for the biphenomycin B MIC, and a colony with an MIC of >50 μM is selected for further cultivation, and the strain is referred to a T17.

E. faecium L4001 [4] = experiment: MIC, alternative method: agar dilution test with 20% defibrinated horse blood; details: Enterococcus faecium
Description: (§4) Alternative Method for Determining the Minimum Inhibitory Concentration (MIC)
(§5) The minimum inhibitory concentration (MIC) is the minimum concentration of an antibiotic with which the growth of a test microbe is inhibited over 18-24 h. The inhibitor concentration can be determined by standard microbiological methods using modified medium in an agar dilution test (see, for example, the National Committee for Clinical Laboratory Standards. Methods for dilution antimicrobial susceptibility tests for bacteria that grow aerobically; approved standard-fifth edition. NCCLS document M7-A5 [ISBN 1-56238-394-9]. NCCLS, 940 West Valley Road, Suite 1400, Wayne, Pa. 19087-1898 USA, 2000). The bacterial microbes are cultivated on 1.5% agar plates containing 20% defibrinated horse blood. The test microbes, which are incubated on Columbia blood agar plates (Becton-Dickinson) overnight, are diluted in PBS, adjusted to a microbe count of about 5×10^5 microbes/ml and placed as drops (1-3 μl) on test plates. The test substances contain various dilutions of the test substances (1:2 dilution stages). The cultures are incubated at 37° C. in the presence of 5% CO2 for 18-24 hours.
(§6) The lowest concentration of each substance at which no visible bacterial growth occurs is defined as the MIC and is reported in μg/ml.

S. aureus E33 [5] = experiment: as above; details: Staphylococcus aureus
Description: as §4, §5, §6

S. aureus T17 [6] = experiment: as above; details: Staphylococcus aureus
Description: as §4, §5, §6

[7] = L4001, read-out: MIC E. faecium L4001
[8] = E33, read-out: MIC S. aureus E33
[9] = T17, read-out: MIC S. aureus T17

CN1C(=O)[C@H](C[C@@H](O)CN)NC(=O)[C@@H](N)Cc2cc(ccc2O)-c2ccc(O)c(c2)C[C@H]1C(=O)NCCN [Example 1, (8S,11S,14S)-14-amino-N-(2-aminoethyl)-11-[(2R)-3-amino-2-hydroxypropyl]-5,17-dihydroxy-9-methyl-10,13-dioxo-9,12-diazatricyclo[14.3.1.1.^2,6]henicosa-1(20),2(21),3,5,16,18-hexaene-8-carboxamide, trihydrochloride]
MIC (E. faecium L4001 [1]; [7]): 12.5 µM | MIC (S. aureus E33 [2]; [8]): 3.1 µM | MIC (S. aureus T17 [3]): 3.1 µM | MIC (E. faecium L4001 [4]; [7]): 16 µg/mL | MIC (S. aureus E33 [5]; [8]): 4 µg/mL | MIC (S. aureus T17 [6]; [9]): 4 µg/mL

NCCC[C@@H]1NC(=O)[C@@H](N)Cc2cc(ccc2O)-c2ccc(O)c(c2)C[C@@H](C(=O)NCCN)NC1=O [Example 6, (8S,11S,14S)-14-amino-N-(2-aminoethyl)-11-(3-aminopropyl)-5,17-dihydroxy-10,1 3-dioxo-9,12-diazatricyclo[14.3.1.1^2,6]henicosa-1(20),2(21),3,5,16,18-hexaene-8-carboxamide]
MIC (E. faecium L4001 [1]; [7]): > 50 µM | MIC (S. aureus E33 [2]; [8]): 3.1 µM (≈ 1.55 µg/mL) | MIC (S. aureus T17 [3]): 3.1 µM (≈ 1.55 µg/mL) | MIC (E. faecium L4001 [4]; [7]): 8 µg/mL (≈ 16 µM) | MIC (S. aureus E33 [5]; [8]): 0.5 µg/mL (≈ 1 µM) | MIC (S. aureus T17 [6]; [9]): 2 µg/mL (≈ 4.01 µM)

NC[C@H](O)C[C@@H]1NC(=O)[C@@H](N)Cc2cc(ccc2O)-c2ccc(O)c(c2)C[C@@H](C(=O)O)NC1=O [Example 20A, 14(S)-Amino-1(S)-(3-amino-2(R)-hydroxypropyl)-5,17-dihydroxy-10,13-dioxo-9,12-diazatricyclo[14.3.1.1^2,6]henicosa-1(19),2,4,6(21),16(20),17-hexaene-8(S)-carboxylic acid dihydrochloride, reference compound]
MIC (E. faecium L4001 [1]; L4001, Table A, liquid dilution, 10% FCS, 5% CO2, read-out: MIC E. faecium L4001): > 25 µM | MIC (S. aureus E33 [2]; E33, Table A, liquid dilution, 18-24 h, 37° C., read-out: MIC S. aureus E33): 0.1 µM | MIC (S. aureus T17 [3]): > 25 µM | MIC (E. faecium L4001 [4]; L4001, Table B, agar dilution, 20% defibrinated horse blood, read-out: MIC E. faecium L4001): 0.5 µg/mL | MIC (S. aureus E33 [5]; E33, Table B, agar dilution, 20% defibrinated horse blood, read-out: MIC S. aureus E33): < 0.03 µg/mL | MIC (S. aureus T17 [6]; T17, Table B, agar dilution, 20% defibrinated horse blood, read-out: MIC S. aureus T17): > 32 µg/mL
